The text below walks through data of US10155728B2, “Compounds for treatment of cancer” (GTX INC., priority 2014, dated 2018).

Where “and” joins values, the source holds several entries; their conditions need not be identical. Equal entries are not always repeated. Where two headings read alike, the source gives them in different places. Bounds are passed on as bounds.

The subject of series [1] is melanoma and prostate cancer cell lines. Nature of the series: SRB cytotoxicity assay, melanoma and prostate cancer cell lines. Type of series: cell-based. Conditions: SRB 96 h. In general terms: The SRB assay estimates cell density from bound dye.
Method: (§2) Cell Culture and Cytotoxicity Assay of Prostate Cancer and Melanoma. […] Melanoma cells were cultured in DMEM, supplemented with 5% FBS, 1% antibiotic/antimycotic mixture (Sigma-Aldrich, Inc., St. Louis, Mo., USA) and bovine insulin (5 μg/ml; Sigma-Aldrich).
Series [2] in a line: Microsomal stability assay, human. Conditions: for T1/2: human liver microsomes, 0.5 μM. The format is in vitro ADME. The procedure:
(§1) Microsomal Stability Assay. […] For metabolite identification, the reaction mixture was incubated for 2 h with 50 μM test compound concentration under the previously described conditions. The supernatants were analyzed using a Water Xevo G2-S high resolution mass spectrometer.
(Liver microsomes are vesicles of endoplasmic reticulum, rich in cytochrome P450 enzymes.)

Series [3] can be described thus: Microsomal stability assay, mouse. The format is in vitro ADME. Conditions: for T1/2: mouse liver microsomes, 0.5 μM. The procedure: as §1
Series [4] in a line: Microsomal stability assay, rat. The format is in vitro ADME. Conditions: for T1/2: rat liver microsomes, 0.5 μM. As to the method:
as §1

Series [5] can be described thus: Metabolite identification in liver microsomes. The format is in vitro ADME. Conditions: 50 μM, 2 h incubation, high resolution MS. The procedure:
as §1
We utilized a high resolution mass spectrometer for the identification of the metabolites with a mass error of less than 2 ppm generally. The detailed information regarding the mass spectrum and the chromatogram of each of the metabolites are presented in the supplementary materials. […] M4 (identified by mass spectrum 388.12 [M+1]) was the product that resulted from ketone reduction and it was further hydroxylated to M5 (identified by mass spectrum 404.12 [M+1]) at a position that was unidentifiable due to limited information. […] M7 (deamination) (identified by mass spectrum 370.11 [M+1]) was a minor product. […] M9 (identified by mass spectrum 386.15 [M+1]) and M10 (identified by mass spectrum 416.16 [M+1]) had more than one possible structure as indicated in the chromatograms. For 7 (FIG. 11), various metabolites including 0-demethylation (M12) (identified by mass spectrum 387.15 [M+1]), mono-hydroxylation (M14) (identified by mass spectrum 417.16 [M+1]), O-demethylation followed by mono-hydroxylation (M11) (identified by mass spectrum 403.14 [M+1]), and dihydroxylation (M13) (identified by mass spectrum 433.15 [M+1]) were detected.

The next series addresses T1, Bovine brain tubulin (Bos taurus, UniProt P81947+Q6B856).
T1 construct: Bovine brain tubulin (0.4 mg, >97% pure) (Cytoskeleton, Denver, Colo.); purchased Cytoskeleton, Denver, Colo; host or cells: bovine brain tissue
Nature of the series: In vitro tubulin polymerization assay. Conditions: for inhibition at 5 µM / inhibition at 10 µM: after 20 min incubation, compared to vehicle; for Inhibition of tubulin polymerization relative to colchicine (in words): 5 and 10 μM. Type of series: biochemical. As to the method:
In Vitro Tubulin Polymerization Assay. […] […] The spectrophotometer was set at 37° C. for tubulin polymerization. […] DMSO was used as a blank control.

A further series deals with A375 cells. Nature of the series: SRB cytotoxicity assay, A375 melanoma cells. Type of series: cell-based. Conditions: for IC50: SRB assay after 96 h of treatment, read-out: IC50 against A375 cells.
The subject of a further series is LNCaP cells. Nature of the series: SRB cytotoxicity assay, LNCaP prostate cancer cells. Type of series: cell-based, human. Conditions: androgen sensitive prostate cancer LNCaP cells.
Series [6] in a line: Microsomal stability, liver microsomes over tested species. Type of series: in vitro ADME. As to the method:
as §1

Series [7] has as its system K562 human leukemia cells. Conditions: read-out: IC50 against K562 human leukemia cells; cited from earlier work.

T1 sequence (Q6B856 whole entry): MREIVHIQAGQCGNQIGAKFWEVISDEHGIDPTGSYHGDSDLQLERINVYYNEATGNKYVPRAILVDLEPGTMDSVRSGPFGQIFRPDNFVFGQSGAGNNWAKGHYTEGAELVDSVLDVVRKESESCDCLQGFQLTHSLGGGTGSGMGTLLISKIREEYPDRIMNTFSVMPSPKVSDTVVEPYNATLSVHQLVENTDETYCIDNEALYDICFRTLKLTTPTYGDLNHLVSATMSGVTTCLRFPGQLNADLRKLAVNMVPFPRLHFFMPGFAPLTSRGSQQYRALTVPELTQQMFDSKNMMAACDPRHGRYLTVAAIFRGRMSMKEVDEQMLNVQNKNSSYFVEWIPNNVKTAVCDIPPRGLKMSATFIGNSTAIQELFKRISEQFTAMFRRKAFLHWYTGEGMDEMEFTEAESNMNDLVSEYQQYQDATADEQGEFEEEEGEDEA
T1 sequence (P81947 whole entry): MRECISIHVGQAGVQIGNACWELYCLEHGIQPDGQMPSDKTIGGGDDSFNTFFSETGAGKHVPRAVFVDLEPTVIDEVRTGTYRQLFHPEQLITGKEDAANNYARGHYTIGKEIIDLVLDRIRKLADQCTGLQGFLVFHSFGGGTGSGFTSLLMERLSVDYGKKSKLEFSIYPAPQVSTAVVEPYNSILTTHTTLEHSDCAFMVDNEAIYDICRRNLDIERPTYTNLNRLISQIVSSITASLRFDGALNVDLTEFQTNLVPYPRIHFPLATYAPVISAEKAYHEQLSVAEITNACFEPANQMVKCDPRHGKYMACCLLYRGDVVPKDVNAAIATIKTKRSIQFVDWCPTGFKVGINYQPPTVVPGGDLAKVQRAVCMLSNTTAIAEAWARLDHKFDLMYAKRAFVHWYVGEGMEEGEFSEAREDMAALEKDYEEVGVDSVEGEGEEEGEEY
Method for A375 cells: as §2
Method for LNCaP cells: as §2

As to `COc1cc(-c2cccc3[nH]c(-c4c[nH]c5ccccc45)nc23)cc(OC)c1OC` [Compound 4, 2-(1H-Indol-3-yl)-4-(3,4,5-trimethoxyphenyl)-1H-benzo[d]imidazole], the “Antiproliferative activity (in words)” value in series [1] is given as “comparable potency”. The T1/2 in [2] came to 50.7 ± 1.2 min. Moreover, the half-life at 0.5 μM in series [2] (human, pooled liver microsomes, pH 7.4, human liver microsomes) is 51 min. For the same compound, the half-life at 0.5 μM in series [3] (pH 7.4, mouse liver microsomes) was 53.5 ± 2.4 min. The same compound came in with a half-life at 0.5 μM in [4] (pH 7.4, rat liver microsomes) of 72.3 ± 4.6 min. Further, the “Major metabolites / metabolic pathway” value in series [5] was “O-demethylation (M9) and mono-hydroxylation (M10)”. Further, on Bovine brain tubulin, the inhibition (as a rule, how much of the control response was suppressed) at 5 µM is 30%; at 10 µM the inhibition was 60%; the “Inhibition of tubulin polymerization relative to colchicine (in words)” value was “stronger inhibition than colchicine”.
`COc1cc(-c2nccc3[nH]c(-c4ccc5[nH]ccc5c4)nc23)cc(OC)c1OC` [Compound 7, 2-(1H-Indol-5-yl)-4-(3,4,5-trimethoxyphenyl)-1H-imidazo[4,5-c]pyridine]: the “IC50 improvement compared to 10 and 4” value in the series with A375 cells (melanoma A375 cells) and with LNCaP cells was “at least 5 fold” in each case. Besides, the “Antiproliferative activity (in words)” value in series [1] is on record as “increased potency”. Besides, the T1/2 is 45 min and 45.3 ± 2.0 min in series [2]; 19.7 ± 0.7 min in series [3]; 30.4 ± 1.9 min in [4]. Besides, the “Major metabolites / metabolic pathway” value in [5] was “formed very evenly with similar relative amount”. The inhibition at 5 µM at Bovine brain tubulin is ~33%. The inhibition at 10 µM on Bovine brain tubulin is ~81%. For the same compound, at Bovine brain tubulin, the “Inhibition of tubulin polymerization relative to colchicine (in words)” value is given as “stronger inhibition than colchicine”.
Regarding `COc1cc(C(=O)c2csc(-c3ccccc3)n2)cc(OC)c1OC` [Compound 10, reference compound], in the series on A375 cells, the half-inhibitory concentration (IC50) (in general, the point on the concentration scale where inhibition reaches its midpoint) is 28 nM. Also, the T1/2 in [2] is 17 min; in series [3], <<5 min; in [4], 31 min.
As to `COc1cc(C(=O)c2csc(-c3ccccc3)n2)cc(OC)c1OC(=O)CCl` [Compound 12, 2,6-Dimethoxy-4-(2-phenylthiazole-4-carbonyl)phenyl 2-chloroacetate], in series [1], the “Antiproliferative activity (in words)” value is listed as “dropped significantly”.
Consider `COCOc1c(OC)cc(C(=O)c2csc(-c3ccccc3)n2)cc1OC` [Compound 15, (3,5-Dimethoxy-4-(methoxymethoxy)phenyl)(2-phenylthiazol-4-yl)methanone], for which the IC50 in the series with A375 cells (Homo sapiens, A-375) turned out to be 20 nM. In addition, in series [1], the “Antiproliferative activity (in words)” value was “improved activity”. For the same compound, the values for the T1/2 in series [2], in [3] and in series [4] were 7.8 ± 0.3 min, 4.0 ± 0.3 min and 9.7 ± 0.4 min, respectively. Also, in series [6] (any of the tested liver microsomes), the “Metabolic stability (in words)” value is “did not improve its metabolic stability”. Also, the half-life at 0.5 μM in [6] (pH 7.4, human, mouse, rat liver microsomes, read-out: T1/2 over tested species liver microsomes) was < 10 min. For the same compound, the “Major metabolites / metabolic pathway” value in series [5] is reported as “removal of the MOM group to form M1”.
As to `COc1cc(C(=O)c2csc(-c3ccccc3)n2)cc(OC)c1OCCN1C(=O)c2ccccc2C1=O` [Compound 17, 2-(2-(2,6-Dimethoxy-4-(2-phenylthiazole-4-carbonyl)phenoxy)ethyl)isoindoline-1,3-dione], the “Antiproliferative activity (in words)” value in series [1] is reported as “micromolar range potency”.
Turning to `COc1cc(C(=O)c2c[nH]c(Nc3ccccc3)n2)cc(OC)c1OC` [Compound 27, (2-(Phenylamino)-1H-imidazol-4-yl)(3,4,5-trimethoxyphenyl)methanone], the “Antiproliferative activity (in words)” value in series [1] is given as “did not demonstrate any activity”.
In the case of `COc1cc(C(=O)c2csc(Nc3ccc4[nH]ccc4c3)n2)cc(OC)c1OC` [Compound 33, (2-((1H-Indol-5-yl)amino)thiazol-4-yl)(3,4,5-trimethoxyphenyl)methanone], in series [1], the “Antiproliferative activity (in words)” value is “excellent growth inhibition”. For the same compound, the “IC50 change compared to PAT” value in the series with prostate cancer cells was 2-3 fold.
Consider `COc1ccc(/C=C(\C)C(=O)c2cc(OC)c(OC)c(OC)c2)cc1O` [SD400], for which, in series [7], the half-maximal inhibitory concentration (IC50) was 0.21 nM.
